Experiment [1] concerns Hr-1 (Skh-1) hairless mice. The experiment in a line: Tests of wrinkle improvement on hairless mice (UVB-induced wrinkles). The experiment is classed as in vivo. Particulars: 3% sample solution in 50% ethanol, 100 μL on back skin once a day, five times a week, versus solvent (50% ethanol), FIG. 1, statistically significant. An excerpt:
Wrinkles were formed on Hr-1 (Skh-1) hairless mice (age 6 to 10 weeks) according to a partly modified version of the method of Schwartz et al. (see Haratake A. et al. J. Invest. Dermatol., 108, 769-775, 1997), in which the mice were repeatedly irradiated with UVB (see Naganuma M. et al. J. Dermatol. Sci., 25, 29-35, 2001; Schwartz E. J. Invest. Dermatol. 91, 158-161, 1988). Specifically, the backs [of the mice] were irradiated with UVB (light source: Toshiba FL-20 SE fluorescent lamp, made by Toshiba Electric) three times a week for ten weeks. The amount of irradiation after the treatment commenced was 36 mJ/cm^2/irradiation. […] The total irradiation amount was 4.6 J/cm^2. Values for the amount of ultraviolet light were measured used a UV radiometer (UVR-305/365D(II), [made by] Topcon). [After] irradiation with ultraviolet light was completed, photographs were taken of the backs of the mice, and the degree of wrinkle generation was scored according to the wrinkle evaluation standards given below using a partially modified version of the method of Bissett et al. (see Bissett, D. L., et al. Photochemistry and Photobiology, 46, 367-378, 1987). Scores of 0, 2, 4, 6, and 8 were used as standard values, and 1, 3, 5, and 7 were used as intermediate scores. […]
The degree of wrinkle improvement of the mice was determined in the following manner. […]

Experiment [2] has as its system healthy male panelists having a large number of wrinkles. Briefly: Tests of improvement in wrinkles that form in the corners of the eyes (half-face blind test, replica analysis and survey). Particulars: 2.5 mass % in face lotion, human eye corners. Format: in vivo. As to the method:
Face lotions (an example and a comparative example) having the compositions given below were applied three times a day using the half-face method (blind tests) to the faces of healthy male panelists having a large number of wrinkles.
Replicas of the eye corner portions to which lotion was applied were acquired using a SILFLO [apparatus] (Flexico Development Ltd.). The proportion of wrinkle area and the proportion of wrinkle volume were determined for before the application of the face lotion (0 M), after one month of application (1 M), and after two months of application (2 M). […] Both the wrinkle area proportion and the wrinkle volume proportion were determined by analyzing the replicas using a wrinkle-measuring apparatus employing a laser-cutting method (see Japanese Laid-Open Patent Application No. 7-113623).
The results of a survey concerning “Impressions of the Effectiveness of Wrinkle Improvement” sent to 23 test subjects are shown in Table 1.

Consider `O=C(O)CCNC(=O)c1ccccc1` [N-benzoyl-β-alanine], for which, in experiment [1], the “degree of wrinkle improvement (score before sample application − score after five weeks of sample application)” value was “reduction in wrinkles dramatically accelerated”. Moreover, the “wrinkle-improving effect (overall conclusion of Example 2)” value in experiment [2] was “had a wrinkle-improving effect”.
